Patent US20080008652A1, “Methods and compositions for mediation of immune responses and adjuvant activity” (The Regents of the University of Michigan, priority 2006, published 2008)

How the values were obtained:
BMDM = assay: Cooperation of low-dose LPS with microbial ligands for IL-1β secretion; type: cell-based, mouse; details: for synergy with LPS for the secretion of IL-1β: WT BMDM, 10 ng ml−1 LPS and 10 ng ml−1 ligand, 24 h
Method: Measurements of cytokines. BMDM and peritoneal macrophages were prepared as previously described. Cells were stimulated with various microbial and synthetic ligands for 24 h and the supernatants were analyzed for IL-1β, IL-18, TNFα and IL-6 secretion. The following ligand concentrations were used: FLS-1, Pam3CSKKK4, LPS, lipoteichoic acid, lipid A and MDP were used at 1 μg ml^−1. For analysis of cooperation of LPS with various ligands, 10 ng ml^−1 of LPS and 10 ng ml^−1 of various ligands were used. In some experiments, the macrophages were stimulated with ligands for 16 h and then with medium containing 2 mM ATP (Sigma) for 30 min, washed, and cultured for an additional 5 h. Mouse cytokines were measured in culture supernatants with enzyme-linked immunoabsorbent assay (ELISA) kits (R and D Systems, Minneapolis, Minn.).

[1] = system: HSA-specific immunoglobulin; assay: Adjuvant activity: HSA-specific serum immunoglobulin after immunization; type: in vivo, mouse
Method: Immunization of mice. […] Serum sample were obtained two weeks after the first immunization and one week after the boost, and antigen specific serum immunoglobulin was assessed by ELISA using antibodies against mouse immunoglobulin and isotype controls (Southern Biotechnology).

[2] = system: peritoneal macrophages and bone marrow-derived macrophages (BMDM); assay: Cytokine secretion (IL-1β, IL-18, TNFα, IL-6) by stimulated macrophages, ELISA; type: cell-based, mouse; details: for secretion of IL-1β with brief ATP treatment: ligand 16 h, then 2 mM ATP 30 min; for requirement of endosomal acidification for IL-1β secretion: FIG. 12
caspase-1 = assay: Caspase-1 activation (pro-caspase-1 processing) in macrophages, Western blotting; type: cell-based, mouse; details: for proteolytic processing of pro-caspase-1 (mature 20 kDa subunit): WT macrophages, ligand 1-3 h, then ATP 30 min
NF-κB, ERK and p38 = assay: NF-κB and MAPK (ERK, p38) activation in macrophages, Western blotting; type: cell-based, mouse; details: R837 5 μg ml-1
[3] = system: IL-1β, IL-6 and TNFα in serum; assay: Serum cytokines after co-injection of LPS and R837 into mice, ELISA; type: in vivo, mouse
Method: (200 μg) or LPS plus […] (200 μg each) and levels of IL-1β (a), IL-6 (b) or TNFα (c) in serum were determined by ELISA at the indicated times.

mice = assay: LPS-induced endotoxic shock, survival; type: in vivo, mouse; details: WT compared with cryopyrin−/− mice; 200 μg or 400 μg LPS
Method: Indicated numbers of wild-type and cryopyrin−/− mice (8 to 12 weeks old) were challenged with 200 μg (a) or 400 μg (b) of LPS and the survival over time of each mouse genotype was plotted.

[4] = WT compared with cryopyrin−/− macrophages
[5] = WT compared with cryopyrin−/− peritoneal macrophages or BMDM, 24 h stimulation, ELISA
[6] = WT compared with cryopyrin−/− macrophages, R837 stimulation 24 h
[7] = WT mice, co-injection of LPS and R837 compared with each alone
[8] = cryopyrin−/− mice, LPS plus R837
[9] = cryopyrin−/− compared with WT mice, R837 100 μg and HSA 50 μg i.p., 2 weeks after immunization

5′-TCCATGACGTTCCTGACGTT-3′ [CpG]
synergy with LPS for the secretion of IL-1β (BMDM): not | enhancement of HSA-specific IgG responses ([1]; WT compared with cryopyrin−/− mice, CpG 100 μg and HSA 50 μg, boosted 3 weeks later): unaffected by cryopyrin deficiency

CC(=O)N[C@H]1C(O)O[C@H](CO)[C@@H](O)[C@@H]1O[C@H](C)C(=O)N[C@@H](C)C(=O)N[C@H](CCC(=O)O)C(N)=O (mixture of isomers) [MDP, muramyl dipeptide]
secretion of IL-1β with brief ATP treatment [2, 4]: did not induce secretion of IL-1β over background levels | secretion of IL-1β [2, 5]: did not induce secretion of IL-1β over background levels | proteolytic processing of pro-caspase-1 (mature 20 kDa subunit) (caspase-1): did not induce proteolytic processing of pro-caspase-1

CC(C)Cn1cnc2c(N)nc3ccccc3c21 [R837, Imiquimod]
requirement of endosomal acidification for IL-1β secretion [2]: not required | production of IL-6: need for cryopyrin [2, 6]: cryopyrin was dispensable | production of TNFα: need for cryopyrin [2, 6]: cryopyrin was dispensable | secretion of IL-1β with brief ATP treatment [2, 4]: Cryopyrin is required | secretion of IL-1β [2, 5]: abrogated | secretion of IL-18 [2, 5]: abrogated | activation of caspase-1 (caspase-1; TLR7- or MyD88-deficient macrophages): proceeded normally | proteolytic processing of pro-caspase-1 (mature 20 kDa subunit) (caspase-1): induced in WT macrophages | activation of caspase-1 (caspase-1; cryopyrin−/− macrophages): abrogated in macrophages lacking cryopyrin | activation of caspase-1 (caspase-1; macrophages lacking ASC): abrogated | activation of NF-κB and MAPKs (NF-κB, ERK and p38; TLR7- and MyD88-deficient macrophages): abolished in TLR7- and MyD88-deficient macrophages | NF-κB, ERK and p38 activation (NF-κB, ERK and p38; WT compared with cryopyrin−/− BMDM): induced comparable levels of NF-κB, ERK and p38 activation in WT and cryopyrin−/− macrophages | enhancement of LPS-mediated IL-1β production (BMDM; cryopyrin−/− macrophages): abrogated in cryopyrin−/− macrophages | levels of IL-1β in serum ([3]; WT mice, co-administration of R837 and LPS (200 μg each) compared with each alone): higher levels of IL-1β in serum than injection of R837 or LPS alone | serum levels of IL-6 [3, 7]: enhanced | serum levels of TNFα [3, 7]: enhanced | serum levels of IL-6 [3, 8]: Reduced levels | serum levels of TNFα [3, 8]: Reduced levels | enhancement of the LPS response (serum IL-1β) by R837 ([3]; cryopyrin−/− mice, LPS plus R837 200 μg each): abolished in cryopyrin−/− mice | production of antigen specific IgG1 [1, 9]: exhibited a defect | production of antigen specific IgG2a/c [1, 9]: exhibited a defect | production of antigen specific IgG3 [1, 9]: exhibited a defect

CCN(CC)CCCC(C)Nc1ccnc2cc(Cl)ccc12 (stereo not shown) [chloroquine]
effect on production of IL-1β induced by bacterial RNA ([2]; treatment of macrophages with chloroquine): did not affect

Pam2CGDPKHPHSF
secretion of IL-1β [2, 5]: induced comparable levels of IL-1β in wild-type (WT) and cryopyrin−/− macrophages

Pam3CSK4
secretion of IL-1β [2, 5]: induced comparable levels of IL-1β in wild-type (WT) and cryopyrin−/− macrophages

flagellin
synergy with LPS for the secretion of IL-1β (BMDM): not

lipid A
secretion of IL-1β [2, 5]: induced comparable levels of IL-1β in wild-type (WT) and cryopyrin−/− macrophages | activation of caspase-1 (caspase-1; cryopyrin−/− macrophages): unimpaired in cryopyrin−/− macrophages | synergy with LPS for the secretion of IL-1β (BMDM): not

lipopolysaccharide [LPS]
requirement of endosomal acidification for IL-1β secretion [2]: not required | secretion of IL-1β [2, 5]: induced comparable levels of IL-1β in wild-type (WT) and cryopyrin−/− macrophages | activation of caspase-1 (caspase-1; cryopyrin−/− macrophages): unimpaired in cryopyrin−/− macrophages | lethality of high doses of LPS (mice): comparable lethality in WT and cryopyrin−/− mice

lipoteichoic acid
secretion of IL-1β [2, 5]: induced comparable levels of IL-1β in wild-type (WT) and cryopyrin−/− macrophages | synergy with LPS for the secretion of IL-1β (BMDM): not
